Assay results reported in patent US20240075140A1, “ENGINEERED NK CELLS AND METHODS OF TREATING CANCER” (American Gene Technologies Intemational Inc, priority 2021, published 2024).

Test system: Daudi cells
Experiment: CD107a response of Mitomycin C treated S76 to Daudi cells
Type: cell-based
Details: various concentrations, 1 or 2 hours; Daudi 2:1, 4 hours
Protocol: Cloned S76 cells were treated with MMC at various concentration for 1 or 2 hours. After MMC treatment, S76 was mixed with Daudi cells at a 2:1 ratio for 4 hours. CD107a was measured by flow cytometry. For detecting CD107a, cells were washed, resuspended in 50-100 μl of staining buffer, and stained with mouse anti-human Vδ2-PE clone B6 and mouse anti-human CD107a-APC clone H4A3. Cells were washed with staining buffer and resuspended. Data for at least 1×10^4 lymphocytes (gated on the basis of forward- and side-scatter profiles) were acquired from each sample on a FACSCalibur flow cytometer (BD Biosciences). All samples were analyzed using FlowJo software.

With `CO[C@@]12[C@H](COC(N)=O)C3=C(C(=O)C(C)=C(N)C3=O)N1C[C@@H]1N[C@@H]12` [MMC, Mitomycin C] the “effect of Mitomycin C treatment on function of clone S76 (CD107a response to Daudi)” value was “did not significantly impair the function”.
